Results: patent EP4772508A1, “MACROCYCLIC COMPOUND AND USE THEREOF” (Jiangsu Hengrui Pharmaceuticals Co., Ltd., priority 2023, dated 2025)
Read-outs that look alike come from different tables or passages of the source. Marks after values point to notes of the source that are not given here.

Assays:
[1] = Metal transfer stability test in the presence of zinc ions; type: physicochemical; conditions: equal volumes 2.5 mM contrast agent and 2.5 mM ZnCl2, phosphate buffer, 37°C, 0.5 T
Procedure: Test example 4: Metal transfer stability test of compounds in the presence of zinc ions • 1 . Experimental protocol • 2. […] Experiment instruments: VTMR20-010V-I Nuclear Magnetic Resonance Cross-Linking Density Imaging Analyser • 4. Experimental method
A 2.5 mM solution of contrast agent solutions and a 2.5 mM solution of zinc chloride were respectively prepared in phosphate buffer (0.026 mol/L KH2PO4 and 0.041 mol/L Na2HPO4). An equal volume of a 2.5 mM ZnCl2 solution was added to the a 2.5 mM gadolinium contrast agent solution, and the mixture was mixed by shaking. This moment of complete mixing was designated as time zero (t = 0). Immediately thereafter, a 0.5 mL aliquot was withdrawn and subjected to measurement of the longitudinal relaxation time, T1(0), at 37°C and a magnetic field strength of 0.5 T. The mixed solution was then incubated at 37°C. 0.5 mL of the solution was taken at time points of 5 min, 180 min, 1440 min and 5760 min, respectively, to determine T1(t) at different time points. The ratio of the relaxivity at different time points to the initial relaxivity at time 0, namely R1(t)/R1(0), was calculated.

[2] = Relaxivity of compounds in human plasma; type: physicochemical; conditions: human plasma containing sodium heparin, 0.5 T
Procedure: (§1) Based on the relaxation times T1 and T2 of samples at different concentrations, the relaxivities r1 and r2 were calculated respectively. The relaxivity was calculated according to the following equation: r = (1)/(ΔT)/C, [formula] r: relaxivity; T: relaxation time (s); C: contrast agent concentration (mM).

[3] = Relaxivity of the compound in water; type: physicochemical; conditions: deionized water
Procedure: Test example 1: Relaxivity of the compound in water
Niumag (Suzhou) Nuclear Magnetic Resonance Contrast Agent Relaxivity Analyser with a 0.5 T magnetic field
Bruker Small Animal Magnetic Resonance Imaging System (BioSpec 70/20 USR) with a 7 T magnetic field
1 mL of the test sample was placed in a 1.5 mL EP (eppendorf) tube, and the longitudinal relaxation time T1 and transverse relaxation time T2 under different magnetic field conditions were measured separately using the Niumag (Suzhou) Nuclear Magnetic Resonance Contrast Agent Relaxivity Analyser with a 0.5 T magnetic field. The test sample was loaded into a 0.2 mL sample tube until full, and the longitudinal relaxation time T1 and transverse relaxation time T2 under different magnetic field conditions were measured separately using the Bruker Small Animal Magnetic Resonance Imaging System (BioSpec 70/20 USR) with a 7 T magnetic field.
as §1

canine plasma proteins = conditions: dog, 1000 µM
Procedure: After the preparation of plasma samples, 0.5 mL of plasma samples were transferred into ultracentrifugation tubes, with 3 replicates per concentration. After incubation in a CO2 incubator at 37°C for 0.5 h, the samples were subjected to ultracentrifugation at 627,000 g for 3 hours at 37°C. After centrifugation, 100 µL of samples were taken from the central layer of the ultracentrifugation tubes and mixed with 100 µL of blank plasma. The samples were stored at -70°C for subsequent determination.
The plasma protein binding rates of analytes at different concentration levels were calculated using the following formulas: [formula] Binding rate% = 100%−Free rate%. [formula]

[4] = hydrochloric acid pH 1.2, 37°C, 8 × 10^-6 M, 0 h
[5] = hydrochloric acid, 24 h, 8 µM, pH 1.2
[6] = hydrochloric acid, 48 h, 8 µM, pH 1.2
[7] = hydrochloric acid, 96 h, 8 µM, pH 1.2

Substance | Gd^3+ Dissociation rate (%) [4] | Gd^3+ Dissociation rate (%) [5] | Gd^3+ Dissociation rate (%) [6] | Gd^3+ Dissociation rate (%) [7] | R1(t)/R1(0) ([1]; 0 min) | R1(t)/R1(0) ([1]; 5 min) | R1(t)/R1(0) ([1]; 180 min) | R1(t)/R1(0) ([1]; 1440 min) | R1(t)/R1(0) ([1]; 5760 min) | Relaxivity r1 [2] | Relaxivity r1 ([3]; 0.5 T) | Relaxivity r1 ([3]; 7 T) | Average% (binding rate) (canine plasma proteins)
Gadobutrol | BLQ | 73.5% | 70.1% | 64.6% | 1 | 0.93 | 0.82 | 0.96 | 0.90 | 7.5 mM⁻¹ s⁻¹ | 4.4 mM⁻¹ s⁻¹ | 3.5 mM⁻¹ s⁻¹ | 
Gadodiamide |  |  |  |  | 1 | 1.07 | 0.59 | 0.59 | 0.38 |  |  |  | 
Gadopiclenol [RC1] | BLQ | 24.7% | 35.6% | 37.8% |  |  |  |  |  |  | 11.7 mM⁻¹ s⁻¹ | 6.3 mM⁻¹ s⁻¹ | 0* %
